# Source: patent publication US8952024B2, “Herbicidal pyrimidone derivatives” (E I du Pont de Nemours and Company, priority 2009, dated 2015)
# What was measured:
# Type in all cases: in vivo
# [1] = tested on: windgrass (Apera spica-venti); assay: Test B postemergence plant response
# Outline: (§1)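 Plants grown in peat/vermiculite medium were sprayed postemergence at 2–18 cm height (1- to 4-leaf stage). After 13–15 days in the greenhouse, response was rated visually against untreated controls on a 0–100 scale (0 no effect, 100 complete control).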
# [2] = tested on: chickweed (Stellaria media); assay: Test B postemergence plant response
# Outline: as §1
# [3] = tested on: canarygrass (Phalaris minor); assay: Test B postemergence plant response
# Outline: as §1
# [4] = tested on: morningglory (Ipomoea coccinea); assay: Test B pre-/postemergence plant response
# Text: (§2) Seeds of plant species selected from blackgrass (Alopecurus myosuroides), downy bromegrass (Bromus tectorum), green foxtail (Setaria viridis), Italian ryegrass (Lolium multiflorum), wheat (Triticum aestivum), wild oat (Avena fatua), deadnettle (henbit deadnettle, Lamium amplexicaule), galium (catchweed bedstraw, Galium aparine), bermudagrass (Cynodon dactylon), Surinam grass (Brachiaria decumbens), cocklebur (Xanthium strumarium), corn (Zea mays), large crabgrass (Digitaria sanguinalis), woolly cupgrass (Eriochloa villosa), giant foxtail (Setaria faberii), goosegrass (Eleusine indica), johnsongrass (Sorghum halepense), kochia (Kochia scoparia), lambsquarters (Chenopodium album), morningglory (Ipomoea coccinea), nightshade (eastern black nightshade, Solanum ptycanthum), yellow nutsedge (Cyperus esculentus), pigweed (Amaranthus retroflexus), ragweed (common ragweed, Ambrosia elatior), Russian thistle (Salsola kali), soybean (Glycine max), sunflower (common oilseed sunflower, Helianthus annuus) and velvetleaf (Abutilon theophrasti) were planted into a blend of loam soil and sand and treated preemergence with test compounds formulated in a non-phytotoxic solvent mixture which included a surfactant.
# (§3) At the same time, plants selected from these crop and weed species and also winter barley (Hordeum vulgare), canarygrass (Phalaris minor), chickweed (Stellaria media) and windgrass (Apera spica-venti) were planted in pots containing Redi-Earth® planting medium (Scotts Company, 14111 Scottslawn Road, Marysville, Ohio 43041) comprising spaghnum peat moss, vermiculite, wetting agent and starter nutrients and treated with postemergence applications of some of the test chemicals formulated in the same manner. Plants ranged in height from 2 to 18 cm (1- to 4-leaf stage) for postemergence treatments.
# (§4) Treated plants and controls were maintained in a greenhouse for 13 to 15 days, after which time all treated plants were visually evaluated and compared to controls. Plant response ratings, summarized in Table B, are based on a scale of 0 to 100 where 0 is no effect and 100 is complete control. A dash (-) response means no test result.
# [5] = tested on: blackgrass (Alopecurus myosuroides); assay: Test B pre-/postemergence plant response
# Text: as §2, §3, §4
# [6] = tested on: downy bromegrass (Bromus tectorum); assay: Test B pre-/postemergence plant response
# Text: as §2, §3, §4
# [7] = tested on: corn (Zea mays); assay: Test B pre-/postemergence plant response
# Text: as §2, §3, §4
# [8] = tested on: wild oat (Avena fatua); assay: Test B pre-/postemergence plant response
# Text: as §2, §3, §4
# [9] = tested on: Italian ryegrass (Lolium multiflorum); assay: Test B pre-/postemergence plant response
# Text: as §2, §3, §4
# [10] = tested on: cocklebur (Xanthium strumarium); assay: Test B pre-/postemergence plant response
# Text: as §2, §3, §4
# [11] = tested on: giant foxtail (Setaria faberii); assay: Test B pre-/postemergence plant response
# Text: as §2, §3, §4
# [12] = tested on: pigweed (Amaranthus retroflexus); assay: Test B pre-/postemergence plant response
# Text: as §2, §3, §4
# [13] = tested on: Surinam grass (Brachiaria decumbens); assay: Test B pre-/postemergence plant response
# Text: as §2, §3, §4
# [14] = Postemergence, 62 g ai/ha, scale 0 (no effect) to 100 (complete control), 13 to 15 days
# [15] = Postemergence, 125 g ai/ha, visual rating after 13 to 15 days, scale 0 (no effect) to 100 (complete control)
# [16] = Postemergence, 31 g ai/ha, scale 0 to 100 (0 no effect, 100 complete control)
# [17] = Postemergence, 250 g ai/ha, scale 0 to 100
# [18] = 250 g ai/ha, Preemergence, 0 to 100 scale
# [19] = Preemergence, 31 g ai/ha, scale 0 to 100 (0 no effect, 100 complete control)
# [20] = Preemergence, 62 g ai/ha, scale 0 to 100 (0 no effect, 100 complete control)
# [21] = Preemergence, 125 g ai/ha, 0 to 100 scale
# [22] = 31 g ai/ha, postemergence, scale 0 to 100, 0 is no effect, 100 is complete control
# [23] = Postemergence, 250 g ai/ha, scale 0 to 100 (0 no effect, 100 complete control)
# [24] = Preemergence, 125 g ai/ha, scale 0 to 100, 0 no effect, 100 complete control
compound,measurement,setting,value
CCCCc1ncc(C(=O)C2=C(O)CCCC2=O)c(=O)n1-c1ccccc1 [Compound 42],"Plant response rating, Windgrass",[1]; [14],60
same,"Plant response rating, Windgrass",[1]; [15],70
same,"Plant response rating, Chickweed",[2]; [16],60
same,"Plant response rating, Chickweed",[2]; [14],70
same,"Plant response rating, Chickweed",[2]; [15],80
same,Chickweed plant response rating,[2]; [17],95
same,"Plant response rating, Canarygrass",[3]; [16],0
same,"Plant response rating, Canarygrass",[3]; [14],0
same,"Plant response rating, Canarygrass",[3]; [15],0
same,Canarygrass plant response rating,[3]; [17],0
same,"Plant response rating, Morningglory",[4]; [18],0
same,"Plant response rating, Morningglory",[4]; [14],70
same,"Plant response rating, Morningglory",[4]; [15],75
same,"Plant response rating, Morningglory",[4]; [19],0
same,"Plant response rating, Morningglory",[4]; [20],0
same,Morningglory plant response rating,[4]; [21],0
same,"Plant response rating, Blackgrass",[5]; [18],5
same,"Plant response rating, Blackgrass",[5]; [16],5
same,"Plant response rating, Blackgrass",[5]; [14],10
same,"Plant response rating, Blackgrass",[5]; [15],15
same,Blackgrass plant response rating,[5]; [17],20
same,"Plant response rating, Blackgrass",[5]; [19],0
same,"Plant response rating, Blackgrass",[5]; [20],0
same,Blackgrass plant response rating,[5]; [21],0
same,"Plant response rating, Bromegrass, Downy",[6]; [18],0
same,"Plant response rating, Bromegrass, Downy",[6]; [16],0
same,"Plant response rating, Bromegrass, Downy",[6]; [14],5
same,"Plant response rating, Bromegrass, Downy",[6]; [15],15
same,"Bromegrass, Downy plant response rating",[6]; [17],25
same,"Plant response rating, Bromegrass, Downy",[6]; [19],0
same,"Plant response rating, Bromegrass, Downy",[6]; [20],0
same,"Bromegrass, Downy plant response rating",[6]; [21],0
same,"Plant response rating, Corn",[7]; [18],0
same,"Plant response rating, Corn",[7]; [16],0
same,"Plant response rating, Corn",[7]; [14],10
same,"Plant response rating, Corn",[7]; [15],20
same,Corn plant response rating,[7]; [17],45
same,"Plant response rating, Corn",[7]; [19],0
same,"Plant response rating, Corn",[7]; [20],0
same,Corn plant response rating,[7]; [21],0
same,"Plant response rating, Oat, Wild",[8]; [18],0
same,"Plant response rating, Oat, Wild",[8]; [14],10
same,"Plant response rating, Oat, Wild",[8]; [15],10
same,"Plant response rating, Oat, Wild",[8]; [19],0
same,"Oat, Wild plant response rating",[8]; [21],0
same,"Plant response rating, Ryegrass, Italian",[9]; [18],0
same,"Plant response rating, Ryegrass, Italian",[9]; [14],5
same,"Plant response rating, Ryegrass, Italian",[9]; [15],10
same,"Plant response rating, Ryegrass, Italian",[9]; [19],0
same,"Ryegrass, Italian plant response rating",[9]; [21],0
same,"Plant response rating, Cocklebur",[10]; [16],0
same,"Plant response rating, Cocklebur",[10]; [14],45
same,"Plant response rating, Cocklebur",[10]; [15],85
same,Cocklebur plant response rating,[10]; [17],95
same,"Plant response rating, Cocklebur",[10]; [19],0
same,"Plant response rating, Cocklebur",[10]; [20],0
same,"Plant response rating, Foxtail, Giant",[11]; [18],10
same,"Plant response rating, Foxtail, Giant",[11]; [16],45
same,"Plant response rating, Foxtail, Giant",[11]; [14],65
same,"Plant response rating, Foxtail, Giant",[11]; [15],75
same,"Foxtail, Giant plant response rating",[11]; [17],85
same,"Plant response rating, Foxtail, Giant",[11]; [19],0
same,"Plant response rating, Foxtail, Giant",[11]; [20],0
same,"Foxtail, Giant plant response rating",[11]; [21],10
same,"Plant response rating, Pigweed",[12]; [18],100
same,"Plant response rating, Pigweed",[12]; [14],95
same,"Plant response rating, Pigweed",[12]; [15],100
same,"Plant response rating, Pigweed",[12]; [19],100
same,Pigweed plant response rating,[12]; [21],100
same,"Plant response rating, Surinam Grass",[13]; [18],75
same,"Plant response rating, Surinam Grass",[13]; [14],40
same,"Plant response rating, Surinam Grass",[13]; [15],45
same,"Plant response rating, Surinam Grass",[13]; [19],0
same,Surinam Grass plant response rating,[13]; [21],10
Cn1c(-c2ccccc2)ncc(C(=O)C2=C(O)CCCC2=O)c1=O [Compound 55],"Plant response rating, Windgrass",[1]; [22],0
same,"Plant response rating, Windgrass",[1]; [14],0
same,"Plant response rating, Windgrass",[1]; [15],0
same,"Plant response rating, Windgrass",[1]; [23],5
same,"Plant response rating, Chickweed",[2]; [22],65
same,"Plant response rating, Chickweed",[2]; [14],75
same,"Plant response rating, Chickweed",[2]; [15],80
same,"Plant response rating, Chickweed",[2]; [23],90
same,"Plant response rating, Canarygrass",[3]; [22],0
same,"Plant response rating, Canarygrass",[3]; [14],0
same,"Plant response rating, Canarygrass",[3]; [15],0
same,"Plant response rating, Canarygrass",[3]; [23],0
same,"Plant response rating, Morningglory",[4]; [22],55
same,"Plant response rating, Morningglory",[4]; [14],60
same,"Plant response rating, Morningglory",[4]; [15],75
same,"Plant response rating, Morningglory",[4]; [23],85
same,"Plant response rating, Morningglory",[4]; [19],0
same,"Plant response rating, Morningglory",[4]; [20],0
same,"Plant response rating, Morningglory",[4]; [24],45
same,"Plant response rating, Blackgrass",[5]; [22],0
same,"Plant response rating, Blackgrass",[5]; [18],30
same,"Plant response rating, Blackgrass",[5]; [14],0
same,"Plant response rating, Blackgrass",[5]; [15],5
same,"Plant response rating, Blackgrass",[5]; [23],10
same,"Plant response rating, Blackgrass",[5]; [19],0
same,"Plant response rating, Blackgrass",[5]; [20],0
same,"Plant response rating, Blackgrass",[5]; [24],0
same,"Plant response rating, Bromegrass, Downy",[6]; [22],0
same,"Plant response rating, Bromegrass, Downy",[6]; [18],0
same,"Plant response rating, Bromegrass, Downy",[6]; [14],0
same,"Plant response rating, Bromegrass, Downy",[6]; [15],0
same,"Plant response rating, Bromegrass, Downy",[6]; [23],0
same,"Plant response rating, Bromegrass, Downy",[6]; [19],0
same,"Plant response rating, Bromegrass, Downy",[6]; [20],0
same,"Plant response rating, Bromegrass, Downy",[6]; [24],0
same,"Plant response rating, Corn",[7]; [22],0
same,"Plant response rating, Corn",[7]; [18],0
same,"Plant response rating, Corn",[7]; [14],5
same,"Plant response rating, Corn",[7]; [15],5
same,"Plant response rating, Corn",[7]; [23],10
same,"Plant response rating, Corn",[7]; [19],0
same,"Plant response rating, Corn",[7]; [20],0
same,"Plant response rating, Corn",[7]; [24],0
same,"Plant response rating, Oat, Wild",[8]; [22],0
same,"Plant response rating, Oat, Wild",[8]; [14],0
same,"Plant response rating, Oat, Wild",[8]; [15],0
same,"Plant response rating, Oat, Wild",[8]; [23],5
same,"Plant response rating, Oat, Wild",[8]; [19],0
same,"Plant response rating, Oat, Wild",[8]; [20],0
same,"Plant response rating, Oat, Wild",[8]; [24],0
same,"Plant response rating, Ryegrass, Italian",[9]; [22],0
same,"Plant response rating, Ryegrass, Italian",[9]; [14],0
same,"Plant response rating, Ryegrass, Italian",[9]; [15],0
same,"Plant response rating, Ryegrass, Italian",[9]; [23],0
same,"Plant response rating, Ryegrass, Italian",[9]; [19],0
same,"Plant response rating, Ryegrass, Italian",[9]; [20],0
same,"Plant response rating, Ryegrass, Italian",[9]; [24],0
same,"Plant response rating, Cocklebur",[10]; [22],45
same,"Plant response rating, Cocklebur",[10]; [18],15
same,"Plant response rating, Cocklebur",[10]; [14],60
same,"Plant response rating, Cocklebur",[10]; [15],65
same,"Plant response rating, Cocklebur",[10]; [23],75
same,"Plant response rating, Cocklebur",[10]; [19],0
same,"Plant response rating, Cocklebur",[10]; [20],10
same,"Plant response rating, Cocklebur",[10]; [24],10
same,"Plant response rating, Foxtail, Giant",[11]; [22],25
same,"Plant response rating, Foxtail, Giant",[11]; [18],10
same,"Plant response rating, Foxtail, Giant",[11]; [14],30
same,"Plant response rating, Foxtail, Giant",[11]; [15],55
same,"Plant response rating, Foxtail, Giant",[11]; [23],75
same,"Plant response rating, Foxtail, Giant",[11]; [19],0
same,"Plant response rating, Foxtail, Giant",[11]; [20],0
same,"Plant response rating, Foxtail, Giant",[11]; [24],0
same,"Plant response rating, Pigweed",[12]; [22],80
same,"Plant response rating, Pigweed",[12]; [14],85
same,"Plant response rating, Pigweed",[12]; [15],90
same,"Plant response rating, Pigweed",[12]; [23],95
same,"Plant response rating, Pigweed",[12]; [19],45
same,"Plant response rating, Pigweed",[12]; [20],95
same,"Plant response rating, Pigweed",[12]; [24],98
same,"Plant response rating, Surinam Grass",[13]; [22],10
same,"Plant response rating, Surinam Grass",[13]; [14],15
same,"Plant response rating, Surinam Grass",[13]; [15],45
same,"Plant response rating, Surinam Grass",[13]; [23],60
same,"Plant response rating, Surinam Grass",[13]; [19],0
same,"Plant response rating, Surinam Grass",[13]; [20],0
same,"Plant response rating, Surinam Grass",[13]; [24],0
